# Target: T1, 3-phosphoinositide-dependent protein kinase 1 (Homo sapiens, UniProt O15530)
# T1 sequence (O15530 whole entry): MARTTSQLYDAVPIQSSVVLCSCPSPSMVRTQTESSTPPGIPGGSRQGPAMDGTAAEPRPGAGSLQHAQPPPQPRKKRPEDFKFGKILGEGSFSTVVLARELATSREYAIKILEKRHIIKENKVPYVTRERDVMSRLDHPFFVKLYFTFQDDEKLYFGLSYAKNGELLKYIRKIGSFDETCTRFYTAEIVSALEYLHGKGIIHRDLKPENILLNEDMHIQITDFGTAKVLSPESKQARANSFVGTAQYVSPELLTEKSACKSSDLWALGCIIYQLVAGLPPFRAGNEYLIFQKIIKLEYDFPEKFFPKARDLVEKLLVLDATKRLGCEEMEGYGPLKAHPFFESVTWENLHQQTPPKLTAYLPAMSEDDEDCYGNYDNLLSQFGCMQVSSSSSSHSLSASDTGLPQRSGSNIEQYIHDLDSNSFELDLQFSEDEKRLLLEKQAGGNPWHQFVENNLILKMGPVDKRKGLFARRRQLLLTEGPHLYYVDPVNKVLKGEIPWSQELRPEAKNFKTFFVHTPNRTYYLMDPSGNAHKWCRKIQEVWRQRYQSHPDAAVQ
# Assay: Kinase Assay: A PDK1 kinase assay was performed as follows. […] PDK1 protein was divided into two fractions, one of which was subsequently dephosphorylated. To generate dephosphorylated PDK1, the PDK1 was reacted with GST-tagged lambda-phosphatase in vitro. GST was subsequently cleaved proteolytically for both phosphorylated and dephosphorylated PDK1. Protein preparations were run on glutathione Sepharose columns to remove GST and GST-tagged lambda-phosphatase, if present. […] Enzyme activity was determined in a coupled PDK1/AKT/FAM-crosstide assay using either phosphorylated or unphosphorylated PDK1 and phosphorylation of FAM-crosstide was determined by standard IMAP protocol (Molecular Devices). For inhibition studies, compounds were titrated 3-fold in DMSO and diluted 40-fold into assay buffer (10 mM Tris HCl pH7.2; 10 mM MgCl2; 0.01% Triton X-100; 1 mM DTT) containing PDK1, AKT2, and FAM-crosstide. […] To detect assay product, the kinase reaction was combined with Progressive Binding Solution (1:600 Progressive Binding Reagent, 50% Buffer A, 50% Buffer B, Molecular Devices) in a 1:3 ratio.
row,SMILES,IC50
1,C[C@H](COc1ccc2[nH]c(=O)[nH]c2c1)NC(=O)c1cccn(Cc2cc(F)c(F)c(F)c2)c1=O,< 500 nM
2,O=C(NCc1cncc(-c2c[nH]c3ncccc23)c1)c1cccn(Cc2ccc(F)c(F)c2)c1=O,< 500 nM
3,O=C(NC/C=C/c1ccc2[nH]c(=O)[nH]c2c1)c1cccn(Cc2cc(F)c(F)c(F)c2)c1=O,< 500 nM
4,O=C(NCc1cccc(-c2c[nH]c3ncccc23)c1)c1cccn(Cc2ccc(C(F)(F)F)cc2)c1=O,< 500 nM
5,Nc1ncnc2ccc(-c3ccc(CNC(=O)c4cccn(Cc5ccc(F)c(F)c5)c4=O)s3)cc12,< 500 nM
6,O=C(NCc1ccc(OCCN2CCOCC2)c(-c2c[nH]c3ncccc23)c1)c1cccn(Cc2ccc(F)c(F)c2)c1=O,< 500 nM
7,NC(=O)COc1cc(CNC(=O)c2cccn(Cc3ccc(F)c(F)c3)c2=O)cc(-c2c[nH]c3ncccc23)c1,< 500 nM
8,O=C(NCc1cccc(-c2c[nH]c3nccc(F)c23)c1)c1cccn(Cc2ccc(F)c(F)c2)c1=O,< 500 nM
9,C=C[C@H](COc1ccc2[nH]c(=O)[nH]c2c1)NC(=O)c1cccn(Cc2cc(F)c(F)c(F)c2)c1=O,< 500 nM
10,NC(=O)c1cc(-c2cccc(CNC(=O)c3cccn(Cc4ccc(F)c(F)c4)c3=O)c2)c[nH]1,< 500 nM
11,O=C(NCc1noc(-c2c[nH]c3ncccc23)n1)c1cc(Cl)cn(Cc2ccc(C(F)(F)F)cc2)c1=O,< 500 nM
12,Cc1[nH]c2ncccc2c1-c1cccc(CNC(=O)c2cccn(Cc3ccc(F)c(F)c3)c2=O)c1,< 500 nM
13,O=C(N[C@@H](COc1ccc2[nH]c(=O)[nH]c2c1)C1CC1)c1cccn(Cc2cc(F)c(F)c(F)c2)c1=O,< 500 nM
14,O=C(Nc1ccnc2ccc(-c3c[nH]c4ncccc34)cc12)c1cccn(Cc2ccc(F)c(F)c2)c1=O,< 500 nM
15,O=C(NCc1cc(OC2CCCC2)cc(-c2c[nH]c3ncccc23)c1)c1cccn(Cc2ccc(F)c(F)c2)c1=O,< 500 nM
16,Cn1nc(NC(=O)c2cccn(Cc3ccc(F)c(F)c3)c2=O)c2cc(-c3c[nH]c4ncccc34)ccc21,< 500 nM
17,CN(C)C(=O)COc1cc(CNC(=O)c2cccn(Cc3ccc(F)c(F)c3)c2=O)cc(-c2c[nH]c3ncccc23)c1,< 500 nM
18,NC(=O)[C@H](COc1ccc2[nH]c(=O)[nH]c2c1)NC(=O)c1cccn(Cc2cc(F)c(F)c(F)c2)c1=O,< 500 nM
19,O=C(O)Cn1nc(NC(=O)c2cccn(Cc3ccc(F)c(F)c3)c2=O)c2cc(-c3c[nH]c4ncccc34)ccc21,< 500 nM
20,Nc1ncnc2ccc(-c3cccc(CNC(=O)c4cccn(Cc5ccc(F)c(F)c5)c4=O)c3)cc12,< 500 nM
21,O=C(NCc1cc(-c2c[nH]c3ncccc23)ccc1O)c1cccn(Cc2ccc(F)c(F)c2)c1=O,< 500 nM
22,COc1ccc(CNC(=O)c2cccn(Cc3ccc(F)c(F)c3)c2=O)cc1-c1c[nH]c2ncccc12,< 500 nM
23,CN1CCC(Oc2cc(CNC(=O)c3cccn(Cc4ccc(F)c(F)c4)c3=O)cc(-c3c[nH]c4ncccc34)c2)CC1,< 500 nM
24,O=C(O)c1cc(-c2c[nH]c3ncccc23)cc(CNC(=O)c2cccn(Cc3ccc(F)c(F)c3)c2=O)n1,< 500 nM
25,O=C(NCc1ccc(O)c(-c2c[nH]c3ncccc23)c1)c1cccn(Cc2ccc(F)c(F)c2)c1=O,< 500 nM
26,CC(=O)NC[C@@H](NC(=O)c1cccn(Cc2ccc(F)c(F)c2)c1=O)c1nc(-c2c[nH]c3ncccc23)cs1,< 500 nM

row,SMILES,IC50
1,CC(C)(C)OC(=O)N1CCC(Oc2cc(CNC(=O)c3cccn(Cc4ccc(F)c(F)c4)c3=O)cc(-c3c[nH]c4ncccc34)c2)CC1,< 500 nM
2,O=C(NCc1cc(OC2CCCCC2)cc(-c2c[nH]c3ncccc23)c1)c1cccn(Cc2ccc(F)c(F)c2)c1=O,< 500 nM
3,COc1cnc2[nH]cc(-c3cccc(CNC(=O)c4cccn(Cc5ccc(F)c(F)c5)c4=O)c3)c2c1,< 500 nM
4,O=C(NC1CC1)c1cnc2[nH]cc(-c3cccc(CNC(=O)c4cccn(Cc5ccc(F)c(F)c5)c4=O)c3)c2c1,< 500 nM
5,O=C(NCc1cc(-c2c[nH]c3ncccc23)cc[n+]1[O-])c1cccn(Cc2ccc(F)c(F)c2)c1=O,< 500 nM
6,O=C(NCc1cccc(-c2c[nH]c3ncc(O)cc23)c1)c1cccn(Cc2ccc(F)c(F)c2)c1=O,< 500 nM
7,CCn1nc(NC(=O)c2cccn(Cc3ccc(F)c(F)c3)c2=O)c2cc(-c3c[nH]c4ncccc34)ccc21,< 500 nM
8,O=C(NCc1cc(OC2CCNCC2)cc(-c2c[nH]c3ncccc23)c1)c1cccn(Cc2ccc(F)c(F)c2)c1=O,< 500 nM
9,O=C(NCc1cc(OS(=O)(=O)c2ccccc2)cc(-c2c[nH]c3ncccc23)c1)c1cccn(Cc2ccc(F)c(F)c2)c1=O,< 500 nM
10,O=C(NCc1cccc(-c2c[nH]c(C(=O)N3CCOCC3)c2)c1)c1cccn(Cc2ccc(F)c(F)c2)c1=O,< 500 nM
11,COc1ccc(-c2c[nH]c3ncccc23)cc1CNC(=O)c1cccn(Cc2ccc(F)c(F)c2)c1=O,< 500 nM
12,O=C(NCCOc1ccc2[nH]c(=O)[nH]c2c1F)c1cccn(Cc2ccc(F)c(F)c2)c1=O,< 500 nM
13,O=C(NCc1cccc(-c2c[nH]c3ncc(C(=O)N4CCOCC4)cc23)c1)c1cccn(Cc2ccc(F)c(F)c2)c1=O,< 500 nM
14,COc1cnc2[nH]cc(-c3ccc(CNC(=O)c4cccn(Cc5ccc(F)c(F)c5)c4=O)s3)c2c1,< 500 nM
15,CS(=O)(=O)N1CCC(Oc2cc(CNC(=O)c3cccn(Cc4ccc(F)c(F)c4)c3=O)cc(-c3c[nH]c4ncccc34)c2)CC1,< 500 nM
16,CNC(=O)c1cc(-c2cccc(CNC(=O)c3cccn(Cc4ccc(F)c(F)c4)c3=O)c2)c[nH]1,< 500 nM
17,O=C(NCc1cccc(-c2c[nH]c3ncc(C(=O)N4CCNCC4)cc23)c1)c1cccn(Cc2ccc(F)c(F)c2)c1=O,< 500 nM
18,O=C(NCc1noc(-c2c[nH]c3ncccc23)n1)c1cccn(Cc2cc(F)c(F)c(F)c2)c1=O,< 500 nM
19,O=C(N[C@@H](COc1ccc2[nH]c(=O)[nH]c2c1)c1ccccc1Cl)c1cccn(Cc2cc(F)c(F)c(F)c2)c1=O,< 500 nM
20,O=C(NCc1coc(-c2c[nH]c3ncccc23)n1)c1cccn(Cc2ccc(F)c(F)c2)c1=O,< 500 nM
21,O=C(NCc1noc(-c2c[nH]c3ncccc23)n1)c1cccn(Cc2ccc(F)c(F)c2)c1=O,< 500 nM
22,O=C(NCc1cccc(-c2c[nH]c3ncc(C(F)(F)F)cc23)c1)c1cccn(Cc2ccc(F)c(F)c2)c1=O,< 500 nM
23,CC(C)Oc1cc(CNC(=O)c2cccn(Cc3cc(F)c(F)c(F)c3)c2=O)cc(-c2c[nH]c3ncccc23)c1,< 500 nM
24,O=C(NCc1cc(OCC(O)CO)cc(-c2c[nH]c3ncccc23)c1)c1cccn(Cc2ccc(F)c(F)c2)c1=O (configuration not stated),< 500 nM
25,NC(=O)c1cc(-c2c[nH]c3ncccc23)cc(CNC(=O)c2cccn(Cc3ccc(F)c(F)c3)c2=O)n1,< 500 nM
26,CC(c1ccc(C(F)(F)F)cc1)n1cccc(C(=O)NCc2noc(-c3c[nH]c4ncccc34)n2)c1=O (configuration not stated),< 500 nM

# — ChEMBL document CHEMBL5726715 (2018)
